Results taken from ChEMBL document CHEMBL1201862, “PubChem BioAssay data set” (2004).
Activity calls are given as the source filed them.

How the values were obtained:
[1] = luciferase reporter signal suppression in cells – H4 neuroglioma cells, luminescence, dose response (AID 1990); type: functional, cell-based
[2] = alpha-synuclein stem-loop luciferase translation blockers – H4 neuroglioma cells, luminescence, confirmation (AID 1988); type: functional, cell-based
[3] = Luminescence Cell-Based Dose Response HTS to Identify Inhibitors of 5'UTR Stem-Loop Driven Prion Protein mRNA Translation in H4 Neuroglioblastoma Cells. [Related pubchem assays: 1827 (Project Summary), 1813 (Primary HTS)]; type: functional
H4 = assay: Luminescence Cell-Based Dose Response HTS to Identify Activators of 5'UTR Stem-Loop Driven Prion Protein mRNA Translation in H4 Neuroglioblastoma Cells. [Related pubchem assays: 1829 (Project Summary), 1814 (Primary HTS)]; type: functional; settings: Homo sapiens
[4] = Luminescence Cell-Based Dose Confirmation HTS to Identify Activators of 5'UTR Stem-Loop Driven Alpha-Synuclein mRNA Translation in H4 Neuroglioblastoma Cells. [Related pubchem assays: 1829 (Project Summary), 1814 (Primary HTS)]; type: functional
[5] = Luminescence Cell-Based Dose Response HTS to Identify Activators of Luciferase Translation or Activity in H4 […] Cells. [Related pubchem assays: 1829 (Project Summary), 1814 (Primary HTS)]; type: functional
Cytochrome P450 2C9 = Cytochrome P450 2C9 (Homo sapiens, UniProt P11712)
Cytochrome P450 3A4 = Cytochrome P450 3A4 (Homo sapiens, UniProt P08684);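 note: CYP3A4 tested as one member of a cytochrome P450 panel screen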
[6] = target: T1, RNA-binding protein pos-1 (Caenorhabditis elegans, UniProt G5EF15); assay: disruptors of C. elegans POS-1 RNA interaction – biochemical, fluorescence polarization, dose response (AID 1964);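 note: purified POS-1 fused to maltose binding protein made in E. coli; potency of compounds blocking POS-1 binding to fluorescent RNA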
T1 sequence (G5EF15 whole entry): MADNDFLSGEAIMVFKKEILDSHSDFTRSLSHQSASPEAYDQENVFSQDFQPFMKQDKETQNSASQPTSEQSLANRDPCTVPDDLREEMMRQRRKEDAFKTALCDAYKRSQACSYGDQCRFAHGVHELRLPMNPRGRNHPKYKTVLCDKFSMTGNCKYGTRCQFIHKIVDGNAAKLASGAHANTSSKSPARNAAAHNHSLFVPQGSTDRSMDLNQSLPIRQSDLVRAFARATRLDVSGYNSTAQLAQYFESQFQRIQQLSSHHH

[7] = target: T2, Zinc finger protein mex-5 (Caenorhabditis elegans, UniProt Q9XUB2); assay: potency of MEX-5 RNA-binding blockers – biochemical, C. elegans, fluorescence polarization, dose response (AID 1960)
T2 sequence (Q9XUB2 whole entry): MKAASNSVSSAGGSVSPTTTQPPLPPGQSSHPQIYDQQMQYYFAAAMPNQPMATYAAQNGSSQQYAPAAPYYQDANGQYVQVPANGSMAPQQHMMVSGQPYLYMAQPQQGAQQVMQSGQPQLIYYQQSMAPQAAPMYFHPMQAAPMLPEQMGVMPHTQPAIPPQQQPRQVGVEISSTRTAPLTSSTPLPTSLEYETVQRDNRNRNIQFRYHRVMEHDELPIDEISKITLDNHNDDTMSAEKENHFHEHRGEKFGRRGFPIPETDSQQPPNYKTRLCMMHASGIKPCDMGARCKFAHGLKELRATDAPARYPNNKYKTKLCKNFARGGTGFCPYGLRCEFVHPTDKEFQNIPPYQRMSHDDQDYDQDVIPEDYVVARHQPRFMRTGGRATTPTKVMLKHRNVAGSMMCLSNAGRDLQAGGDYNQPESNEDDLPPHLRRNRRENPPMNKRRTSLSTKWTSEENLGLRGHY

Protein RecA = target: T3, Protein RecA (Mycobacterium tuberculosis, UniProt P9WHJ3); assay: Fluorescence Cell-Free Homogeneous Dose Retest to Identify Inhibitors of RecA-Intein Splicing Activity. [Related pubchem assays (depositor defined):AID2097, AID2223, AID489010, AID492950]; type: functional
T3 sequence (P9WHJ3 whole entry): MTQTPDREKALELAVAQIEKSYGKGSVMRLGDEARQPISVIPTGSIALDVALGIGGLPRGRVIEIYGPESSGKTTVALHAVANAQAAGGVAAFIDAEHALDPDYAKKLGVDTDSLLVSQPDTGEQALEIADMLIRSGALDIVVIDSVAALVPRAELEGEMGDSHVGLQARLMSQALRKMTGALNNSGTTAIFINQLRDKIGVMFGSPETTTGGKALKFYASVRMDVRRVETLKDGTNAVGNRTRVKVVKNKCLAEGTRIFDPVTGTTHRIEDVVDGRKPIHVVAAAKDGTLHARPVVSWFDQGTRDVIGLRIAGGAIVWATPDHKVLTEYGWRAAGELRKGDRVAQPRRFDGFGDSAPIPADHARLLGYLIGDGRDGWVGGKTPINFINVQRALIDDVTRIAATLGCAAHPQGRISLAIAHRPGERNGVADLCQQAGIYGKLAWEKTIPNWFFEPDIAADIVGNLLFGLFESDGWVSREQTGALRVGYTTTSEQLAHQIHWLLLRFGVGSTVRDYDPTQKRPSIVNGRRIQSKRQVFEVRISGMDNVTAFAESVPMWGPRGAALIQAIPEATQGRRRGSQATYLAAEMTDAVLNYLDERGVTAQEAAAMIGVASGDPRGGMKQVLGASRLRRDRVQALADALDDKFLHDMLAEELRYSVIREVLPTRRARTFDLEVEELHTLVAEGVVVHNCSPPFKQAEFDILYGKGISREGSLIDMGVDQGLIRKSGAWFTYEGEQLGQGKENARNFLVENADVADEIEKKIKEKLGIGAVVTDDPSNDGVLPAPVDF

[8] = target: T4, Replicative DNA helicase DnaB (Mycobacterium tuberculosis, UniProt P9WMR3); assay: DnaB intein splicing inhibitors, dose response, biochemical, cell-free fluorescence (AID 449749); type: functional
T4 sequence (P9WMR3 whole entry): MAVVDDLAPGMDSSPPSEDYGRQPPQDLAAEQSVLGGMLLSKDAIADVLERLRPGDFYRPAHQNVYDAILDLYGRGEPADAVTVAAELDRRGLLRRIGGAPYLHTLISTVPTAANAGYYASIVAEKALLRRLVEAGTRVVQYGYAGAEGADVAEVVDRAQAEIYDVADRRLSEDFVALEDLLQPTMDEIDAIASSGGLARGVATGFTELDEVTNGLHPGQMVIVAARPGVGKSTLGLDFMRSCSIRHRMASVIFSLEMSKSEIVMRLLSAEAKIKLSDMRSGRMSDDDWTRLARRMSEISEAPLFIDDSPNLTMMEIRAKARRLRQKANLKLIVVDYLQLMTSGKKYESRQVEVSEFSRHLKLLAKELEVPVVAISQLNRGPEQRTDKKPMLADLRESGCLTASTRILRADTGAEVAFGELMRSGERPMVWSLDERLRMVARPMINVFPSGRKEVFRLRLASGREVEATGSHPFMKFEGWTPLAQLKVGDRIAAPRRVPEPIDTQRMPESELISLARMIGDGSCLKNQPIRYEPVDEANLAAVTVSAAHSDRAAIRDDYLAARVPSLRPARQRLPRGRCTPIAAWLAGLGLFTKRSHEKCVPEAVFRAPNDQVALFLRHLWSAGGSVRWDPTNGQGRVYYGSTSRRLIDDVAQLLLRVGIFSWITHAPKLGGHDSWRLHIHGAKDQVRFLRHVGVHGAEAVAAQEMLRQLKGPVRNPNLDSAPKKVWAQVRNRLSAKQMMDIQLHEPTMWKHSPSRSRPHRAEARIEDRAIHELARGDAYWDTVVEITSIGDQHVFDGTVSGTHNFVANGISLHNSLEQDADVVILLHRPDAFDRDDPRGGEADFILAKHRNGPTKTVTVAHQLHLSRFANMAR

Cytochrome P450 2C19 = Cytochrome P450 2C19 (Homo sapiens, UniProt P33261); assay: Cytochrome panel assay with activity outcomes. Panel member name: p450-cyp2c19 Compounds with AC50 equal or less than 10 uM are considered active; type: functional; settings: read-out: AC50
[9] = target: T5, Corticotropin-releasing factor receptor 2/Corticotropin-releasing factor-binding protein (Homo sapiens, UniProt P24387+Q13324); assay: activators of CRF receptor 2 with binding protein – uHTS hits, confirmation (AID 602473); type: functional; settings: read-out: EC50_Mean
T5 sequence (Q13324 whole entry): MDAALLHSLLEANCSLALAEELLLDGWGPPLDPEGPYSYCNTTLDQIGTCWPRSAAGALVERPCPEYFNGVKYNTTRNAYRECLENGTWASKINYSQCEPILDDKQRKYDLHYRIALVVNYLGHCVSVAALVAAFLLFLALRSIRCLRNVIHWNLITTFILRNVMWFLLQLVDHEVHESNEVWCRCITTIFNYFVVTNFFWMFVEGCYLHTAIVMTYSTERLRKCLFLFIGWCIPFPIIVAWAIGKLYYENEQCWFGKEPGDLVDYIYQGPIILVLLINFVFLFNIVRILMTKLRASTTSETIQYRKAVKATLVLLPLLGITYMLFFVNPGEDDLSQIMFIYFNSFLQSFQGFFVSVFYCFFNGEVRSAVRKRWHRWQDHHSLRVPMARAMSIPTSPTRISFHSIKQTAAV
T5 sequence (P24387 whole entry): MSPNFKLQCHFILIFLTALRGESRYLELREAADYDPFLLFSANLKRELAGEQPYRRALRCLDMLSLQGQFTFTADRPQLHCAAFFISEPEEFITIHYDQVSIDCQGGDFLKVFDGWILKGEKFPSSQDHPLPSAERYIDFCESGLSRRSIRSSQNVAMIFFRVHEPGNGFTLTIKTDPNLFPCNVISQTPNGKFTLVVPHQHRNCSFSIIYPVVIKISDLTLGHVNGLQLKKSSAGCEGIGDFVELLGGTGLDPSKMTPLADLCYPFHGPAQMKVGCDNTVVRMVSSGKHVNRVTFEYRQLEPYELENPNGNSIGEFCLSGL

Cytochrome P450 2C19, sequence (P33261 whole entry): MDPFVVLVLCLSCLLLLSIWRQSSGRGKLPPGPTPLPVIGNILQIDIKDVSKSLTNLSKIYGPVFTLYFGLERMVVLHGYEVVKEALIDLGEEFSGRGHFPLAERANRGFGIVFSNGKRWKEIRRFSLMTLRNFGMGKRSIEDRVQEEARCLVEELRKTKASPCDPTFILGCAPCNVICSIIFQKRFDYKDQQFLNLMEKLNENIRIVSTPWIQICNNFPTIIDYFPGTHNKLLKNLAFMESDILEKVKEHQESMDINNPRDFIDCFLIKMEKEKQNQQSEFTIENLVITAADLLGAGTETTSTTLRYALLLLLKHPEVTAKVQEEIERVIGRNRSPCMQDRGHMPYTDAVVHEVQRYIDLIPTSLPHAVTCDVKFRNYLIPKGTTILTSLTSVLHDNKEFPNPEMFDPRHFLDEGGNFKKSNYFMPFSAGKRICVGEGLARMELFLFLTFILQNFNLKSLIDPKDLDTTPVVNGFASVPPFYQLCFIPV
Cytochrome P450 2C9, sequence (P11712 whole entry): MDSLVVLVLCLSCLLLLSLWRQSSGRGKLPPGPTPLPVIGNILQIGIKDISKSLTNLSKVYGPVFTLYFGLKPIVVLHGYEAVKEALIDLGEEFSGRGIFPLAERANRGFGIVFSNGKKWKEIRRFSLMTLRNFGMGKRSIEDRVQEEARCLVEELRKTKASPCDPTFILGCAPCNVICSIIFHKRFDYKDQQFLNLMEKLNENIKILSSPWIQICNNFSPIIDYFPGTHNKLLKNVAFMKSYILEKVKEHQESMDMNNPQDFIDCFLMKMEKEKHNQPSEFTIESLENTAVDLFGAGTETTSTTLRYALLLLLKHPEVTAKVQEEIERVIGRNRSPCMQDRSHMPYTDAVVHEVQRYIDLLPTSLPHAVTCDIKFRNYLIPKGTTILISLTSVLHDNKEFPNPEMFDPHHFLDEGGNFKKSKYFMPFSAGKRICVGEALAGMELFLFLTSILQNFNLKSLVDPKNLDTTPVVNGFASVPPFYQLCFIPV
Cytochrome P450 3A4, sequence (P08684 whole entry, the tested form may be a part): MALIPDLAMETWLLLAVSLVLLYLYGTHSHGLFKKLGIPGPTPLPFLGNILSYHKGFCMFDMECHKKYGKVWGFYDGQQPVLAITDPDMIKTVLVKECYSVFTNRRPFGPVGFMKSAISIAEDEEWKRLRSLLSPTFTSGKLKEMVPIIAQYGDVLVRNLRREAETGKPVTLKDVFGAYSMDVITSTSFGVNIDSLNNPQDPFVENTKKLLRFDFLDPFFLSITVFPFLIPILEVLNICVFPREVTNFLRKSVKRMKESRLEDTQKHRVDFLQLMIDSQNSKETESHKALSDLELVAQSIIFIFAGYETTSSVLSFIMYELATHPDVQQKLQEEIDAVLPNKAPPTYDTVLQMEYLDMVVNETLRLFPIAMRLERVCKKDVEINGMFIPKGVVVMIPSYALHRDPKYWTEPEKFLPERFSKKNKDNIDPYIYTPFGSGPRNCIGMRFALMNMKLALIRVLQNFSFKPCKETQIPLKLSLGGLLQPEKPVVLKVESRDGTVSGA

CC(C)CCn1c(N)c(S(=O)(=O)c2cccs2)c2nc3ccccc3nc21
EC50 [1]: 69 µM (active) | EC50 [2]: > 120 µM (not active) | EC50 [3]: > 120 µM (not active)

COC(=O)c1ccc(COC(=O)c2nn(C)c(=O)c3ccccc23)cc1
EC50 (H4): > 120 µM (not active) | EC50 [4]: 15.6 µM (active) | EC50 [5]: 14.1 µM (active)

Cc1nn(C)c(C)c1CNC(=O)c1cnn2c1NC(c1ccccc1)CC2C(F)(F)F (centres undefined)
AC50 (Cytochrome P450 2C9): 15.8 µM (inconclusive)

CCOC(=O)N1CCC(NC(=O)c2ccc3c(c2)sc2nc(-c4cccc(OC)c4)cn23)CC1
EC50 (H4): 7.29 µM (active) | EC50 [4]: 28.6 µM (active) | EC50 [5]: 12.6 µM (active)

CC(C)[C@@H]1NC(=O)[C@H](CCCCN)NC(=O)[C@H](Cc2c[nH]c3ccccc23)NC(=O)[C@H](Cc2ccc(O)cc2)NC(=O)[C@H](C)N(C)C(=O)[C@H](Cc2ccccc2)NC1=O
AC50 (Cytochrome P450 2C9): 25.1 µM (inconclusive)

COc1cc(N=C(S)N2CCOCC2)c(OC)cc1Cl
EC50 (H4): > 120 µM (not active) | EC50 [4]: > 120 µM (not active) | EC50 [5]: > 120 µM (not active)

COC(=O)c1cnn(-c2nc(-c3ccccc3)cs2)c1N
EC50 (H4): > 120 µM (not active) | EC50 [4]: 0.585 µM (active) | EC50 [5]: 72.2 µM (active)

O=C(OCc1nc2ccccc2[nH]1)C12CC3CC(CC(C3)C1)C2
AC50 (Cytochrome P450 2C9): 14.1 µM (inconclusive) | AC50 (Cytochrome P450 3A4): 1.12 µM (inconclusive)

O=C(CCN1CCN(CC(=O)Nc2ccccc2Cl)CC1)Nc1ccccc1F
AC50 (Cytochrome P450 2C9): 10 µM (inconclusive) | AC50 (Cytochrome P450 3A4): 20 µM (inconclusive)

COC(=O)c1cc(CSc2nc3ccccc3[nH]2)oc1C
EC50 [4]: 12.8 µM (active) | EC50 [5]: 31.9 µM (active)

C=CCOc1ccc(C(=O)C2=C(O)C(=O)N(CCCn3ccnc3)C2c2cccs2)cc1 (centres undefined)
EC50 (H4): > 120 µM (not active) | EC50 [4]: > 120 µM (not active) | EC50 [5]: 12 µM (active)

O=C(CSCc1c(Cl)cccc1Cl)NCC1CCCO1 (centres undefined)
EC50 [6]: > 300 µM (not active) | EC50 [7]: > 300 µM (not active)

CCC(C)N1C(=O)/C(=C\NNc2nc3c(c(=O)n(C)c(=O)n3C)n2C)C(=O)NC1=S (centres undefined)
EC50 [6]: > 300 µM (not active) | EC50 [7]: 38.6 µM (active)

N#CC(C#N)=Cc1ccc(-c2ccccc2)o1
EC50 [6]: 6.78 µM (inconclusive) | EC50 [7]: 22.5 µM (inconclusive)

Cc1cc(/C=C2\C(=O)NC(=O)N(Cc3ccco3)C2=O)c(C)n1-c1ccc(C(=O)O)cc1
EC50 [7]: > 300 µM (inconclusive)

O=C(Nc1cccc(OC(=O)c2ccco2)c1)c1ccco1
EC50 (Protein RecA): 10.1 µM (active) | AC50 [8]: 21.4 µM (active) | AC50 (Cytochrome P450 2C9): 25.1 µM (inconclusive)

O=C(c1cc(C(F)(F)F)cc(C(F)(F)F)c1)N1CCC2(CCCN(Cc3ccncc3)C2)CC1
AC50 (Cytochrome P450 2C19): 25.1 µM (inconclusive) | AC50 (Cytochrome P450 2C9): 7.94 µM (inconclusive) | AC50 (Cytochrome P450 3A4): 10 µM (inconclusive)

Cc1ccc2nc(-c3ccc(S(=O)(=O)N4CCCCC4)cc3)cn2c1
EC50 (H4): 14.9 µM (active) | EC50 [4]: > 120 µM (not active) | EC50 [5]: 24.4 µM (active)

Cc1cc(C)cc(NS(=O)(=O)c2ccc3ncc(C(=O)N4CCc5ccccc54)c(O)c3c2)c1
EC50 [9]: > 53 µM (inactive)

CC1CC1C(=O)OCC(=O)NC(=O)NC12CC3CC(CC(C3)C1)C2 (centres undefined)
EC50 (H4): 15.4 µM (active) | EC50 [4]: 13.1 µM (active) | EC50 [5]: 21.1 µM (active)

COC(=O)C1=C(NC(=O)c2cccs2)CCS1
AC50 (Cytochrome P450 2C19): 17.8 µM (inconclusive) | AC50 (Cytochrome P450 2C9): 39.8 µM (inconclusive)

N#Cc1cccc(-c2nc(NCc3cccnc3)c3ccccc3n2)c1
AC50 (Cytochrome P450 2C9): 1.58 µM (inconclusive)

C/C(=N\NC(N)=O)c1ccc(Cl)cc1
AC50 (Cytochrome P450 2C19): 31.6 µM (inconclusive) | AC50 (Cytochrome P450 2C9): 2 µM (inconclusive)

CC1CCCC(/C=N/c2ccc3c(c2)OCO3)=C1O (centres undefined)
EC50 (H4): 39.1 µM (active) | EC50 [4]: 13.7 µM (active) | EC50 [5]: 16.1 µM (active)
